Experimental findings from PubChem BioAssay (NCI) are described below.

Molecules are shown by their SMILES. Where “and” joins values, the source holds several entries; their conditions need not be identical. Equal entries are not always repeated.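 Briefly, cells in 96-well plates were exposed to five compound concentrations for 48 h, and endpoints were estimated by linear interpolation. Abbreviation: GI50, concentration required for 50% inhibition of growth. TGI: total growth inhibition.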

For the first test, the system named is KM12 colon. The test can be described thus: DTP human tumour cell line panel, 48 h.
In general, TGI refers to the concentration giving total growth inhibition. Take `NC(C(F)(F)F)(C(F)(F)F)P(=O)(Cc1ccccc1)Cc1ccccc1`: the TGI is greater than 100 µM.

The compound `S=C(N/N=C\C=N/NC(=S)N1CCCCC1)N1CCCCC1` displayed a TGI greater than 100 µM.

In turn, `C=C1CC(COc2cc(=O)oc3ccccc23)(c2ccccc2)OC1=O` (stereo not drawn) showed a TGI of 12.7 µM.

In turn, `CC(C)(C)c1ccc2c(c1)CNCCNCc1cc(C(C)(C)C)ccc1OCC1(CO2)COc2ccc(C(C)(C)C)cc2CNCCNCc2cc(C(C)(C)C)ccc2OC1` had a concentration for total growth inhibition (TGI) of 0.933 µM.

The compound `Nc1cc(CO)cc(Nc2nc3ccc(Cl)cc3c3[nH]c4ccccc4c23)c1` yielded a TGI of 18.6 µM.

Turning to `CCN1CC2=C(NC(=S)NC2c2ccc(Cl)cc2)/C(=C/c2ccc(Cl)cc2)C1` (stereo not drawn), the TGI is greater than 100 µM.

`CCOC(=O)C1Cc2[nH]c3ccccc3c2C(C)C1C` (stereo not drawn) displayed a TGI of 34.6 µM.

For `NC(=O)N/N=C(\Cc1nc2ccc(Cl)cc2[nH]c1=O)C(=O)Nc1ccc(Cl)cc1Cl`, the TGI is greater than 100 µM.

`OCCCCCNc1c2ccccc2nc2ccccc12` returned a TGI of 14.3 µM.

Regarding `CCOP(=O)(OCC)/C(C#N)=C/c1cnc(-c2ccccc2)[nH]1`, the TGI is greater than 100 µM.

In the case of `CC(=O)OCC1OC(OC(C)(C)CC/C=C(\C)[C@@H]2C/C=C(\C)CC/C=C(\C)CC2)C(O)C(O)C1OC(C)=O` (stereo partly drawn), the TGI is > 59.7 µM and 36.8 µM.

In the case of `O=C(/C=C/c1ccc(O)c([N+](=O)[O-])c1)CC(=O)/C=C/c1ccc(O)c([N+](=O)[O-])c1`, the TGI was found to be 97.6 µM. That is a double-digit micromolar value.

As to `OCC1CCCCCCCCCCC12SCCCS2` (stereo not drawn), the TGI is greater than 100 µM.

Regarding `CC(C)=CCOC(=O)C(C)=[N+]=[N-]`, the TGI was greater than 100 µM.

In turn, `Cn1cc2ccccc2c1-c1nc(N)nc(F)n1` registered a TGI greater than 100 µM.

`CC1=C(O)C(=O)[C@@H]2O[C@@H]2C1=O` showed a TGI of 27.3 µM.

`CC(O[Si](c1ccccc1)(c1ccccc1)C(C)(C)C)[C@H](NC(=O)OC(C)(C)C)C(=O)O[Si](c1ccccc1)(c1ccccc1)C(C)(C)C` (stereo partly drawn) displayed a TGI of 24.3 µM.

In the case of `Cc1nc2c(sc(=S)n2-c2ccccc2)c2nc3ncccc3n12`, the TGI was greater than 100 µM.

`Cc1ccc(-c2c(C#N)c(-c3ccccc3)n(NS(=O)(=O)c3ccccc3)c(=O)c2C#N)cc1` yielded a TGI greater than 100 µM.

With `COc1ccc(C(C#N)NNC(=O)c2ccccc2O)cc1OC` (stereo not drawn), the TGI is greater than 100 µM.

`O=c1[nH]n2c(=O)cc[nH]c2c1-c1nnns1` had a TGI greater than 100 µM.

In turn, `N.N.N.O=[N+]([O-])[O-].O=[N+]([O-])[O-].O=[N+]([O-])[O-].O=[N+]([O-])[O-].[Co+3]` displayed a TGI greater than 100 µM.

For the next test, the system named is EKVX NSCLC. The experiment in a line: DTP human tumour cell line panel, 48 h.
Compound `NC(C(F)(F)F)(C(F)(F)F)P(=O)(Cc1ccccc1)Cc1ccccc1` yielded a TGI greater than 100 µM.

The compound `S=C(N/N=C\C=N/NC(=S)N1CCCCC1)N1CCCCC1` registered a TGI greater than 100 µM.

As for `C=C1CC(COc2cc(=O)oc3ccccc23)(c2ccccc2)OC1=O` (stereo not drawn), the TGI is 13.5 µM. That is a double-digit micromolar value.

Compound `Cc1cc(N(CCC#N)CCC#N)ccc1/C=N/NC(=O)c1cc(Cl)ccc1O` displayed a TGI greater than 100 µM.

Turning to `CC(C)(C)c1ccc2c(c1)CNCCNCc1cc(C(C)(C)C)ccc1OCC1(CO2)COc2ccc(C(C)(C)C)cc2CNCCNCc2cc(C(C)(C)C)ccc2OC1`, the TGI came out at 2.42 µM.

Regarding `Nc1cc(CO)cc(Nc2nc3ccc(Cl)cc3c3[nH]c4ccccc4c23)c1`, the TGI was 15.1 µM.

For `CCN1CC2=C(NC(=S)NC2c2ccc(Cl)cc2)/C(=C/c2ccc(Cl)cc2)C1` (stereo not drawn), the TGI was greater than 100 µM.

Compound `CCOC(=O)C1Cc2[nH]c3ccccc3c2C(C)C1C` (stereo not drawn) gave a TGI of 31.2 µM.

For the compound `NC(=O)N/N=C(\Cc1nc2ccc(Cl)cc2[nH]c1=O)C(=O)Nc1ccc(Cl)cc1Cl`, the TGI was greater than 100 µM.

`OCCCCCNc1c2ccccc2nc2ccccc12` registered a TGI of 17.5 µM. This counts as double-digit micromolar.

As for `CCOP(=O)(OCC)/C(C#N)=C/c1cnc(-c2ccccc2)[nH]1`, the TGI was greater than 100 µM.

The term GI50 denotes the concentration at which growth is held to half of that of the control. Regarding `CC(=O)OCC1OC(OC(C)(C)CC/C=C(\C)[C@@H]2C/C=C(\C)CC/C=C(\C)CC2)C(O)C(O)C1OC(C)=O` (stereo partly drawn), the GI50 was 43.6 µM and 19 µM; the TGI is > 100 µM and 37.3 µM.

`O=C(/C=C/c1ccc(O)c([N+](=O)[O-])c1)CC(=O)/C=C/c1ccc(O)c([N+](=O)[O-])c1` came in with a concentration for total growth inhibition (TGI) greater than 100 µM.

In turn, `OCC1CCCCCCCCCCC12SCCCS2` (stereo not drawn) had a TGI greater than 100 µM.

In the case of `CC(C)=CCOC(=O)C(C)=[N+]=[N-]`, the TGI was greater than 100 µM.

For `Cn1cc2ccccc2c1-c1nc(N)nc(F)n1`, the TGI was greater than 100 µM.

Compound `CC1=C(O)C(=O)[C@@H]2O[C@@H]2C1=O` gave a TGI of 33.9 µM.

`CC(O[Si](c1ccccc1)(c1ccccc1)C(C)(C)C)[C@H](NC(=O)OC(C)(C)C)C(=O)O[Si](c1ccccc1)(c1ccccc1)C(C)(C)C` (stereo partly drawn) showed a TGI of 26.4 µM. The TGI values of the last two compounds are within 1.5-fold of each other.

`Cc1nc2c(sc(=S)n2-c2ccccc2)c2nc3ncccc3n12` showed a TGI greater than 100 µM.

`Cc1ccc(-c2c(C#N)c(-c3ccccc3)n(NS(=O)(=O)c3ccccc3)c(=O)c2C#N)cc1`: the TGI was greater than 100 µM.

For `O=c1[nH]n2c(=O)cc[nH]c2c1-c1nnns1`, the TGI is greater than 100 µM.

As to `N.N.N.O=[N+]([O-])[O-].O=[N+]([O-])[O-].O=[N+]([O-])[O-].O=[N+]([O-])[O-].[Co+3]`, the TGI was greater than 100 µM.

For the next test, the system named is SW-620 colon. The experiment in a line: DTP human tumour cell line panel, 48 h.
In turn, `NC(C(F)(F)F)(C(F)(F)F)P(=O)(Cc1ccccc1)Cc1ccccc1` returned a TGI greater than 100 µM.

On to `S=C(N/N=C\C=N/NC(=S)N1CCCCC1)N1CCCCC1`, for which the TGI is greater than 100 µM.

Consider `C=C1CC(COc2cc(=O)oc3ccccc23)(c2ccccc2)OC1=O` (stereo not drawn), for which the TGI was 3.35 µM.
